Here are results for eight molecules from PMC8284440, “Toward New Transmission-Blocking Combination Therapies: Pharmacokinetics of 10-Amino-Artemisinins and 11-Aza-Artemisinin and Comparison with Dihydroartemisinin and Artemether” (Antimicrobial Agents and Chemotherapy, 2021).

In brackets after ≈: the same amount, converted by molar mass. Several values for one entry are separate records, joined by “and”; a condition that tells them apart may be missing. Equal entries are not always repeated. Where two headings read alike, the source gives them in different places.

The nature of series [1]: Metabolic stability in rat liver microsomes. The class given is in vitro ADME. Also on record: half-life / CLint scaled: dose or concentration left out as unconfirmed. The conditions noted are these: for CLint scaled: calculated, read-out: Intrinsic liver clearance rate CLint Rat; for half-life: read-out: Microsomal half-life t1/2 Rat. The method, then: (ii) Metabolic stability in liver microsomes. The metabolic stability assay was performed in duplicate using 96-deepwell plates. Each compound (0.4 mM) was incubated individually in mouse, rat, and pooled human liver microsomes (0.4 mg/ml) at 37°C in the presence and absence of the cofactor NADPH (1 mM). An aliquot was taken at 0, 5, 10, 30, and 60 min, and the reaction was quenched by adding 300 μl of ice-cold acetonitrile containing the internal standard carbamazepine (0.0236 μg/ml) ([88]). The test compounds in the supernatant were analyzed by means of LC-MS/MS as described in “Sample analysis” below. The normalized data for each sample were used to calculate the in vitro half-life, intrinsic clearance rate, and hepatic extraction ratio from the results of this assay using the following equations ([88]).Equation 1. Normalized area. (1) Normalized area=(Peak area of sample at time point/Peak area of internal standard) Equation 2. Percent parent remaining. (2) % Parent=Normalized peak area of sample at time point/Normalized peak area of sample at t=0×100 Equation 3. Calculated t1/2. (3) t1/2=−0.693/λ where λ is the slope of the ln (% parent remaining) versus time curve of the compound.Equation 4. CLint. (4) CLint=[0.693/t1/2(min)]×[Volume of incubation (μl)/Microsomal protein (μg)] Equation 5. Hepatic extraction ratio. (5) EH=fu×CLint/QH + fu×CLint
Sample extraction. […] The organic layer was then transferred and evaporated under a gentle stream of nitrogen at room temperature for 30 min. The dried samples were reconstituted in mobile phase, and a 5 μl sample was injected for LC-MS/MS analysis. The only exception was the arylurea 10, for which no liquid-liquid extraction was conducted; instead, the 200 μl acetonitrile solution was evaporated under a gentle stream of nitrogen at room temperature. The dried sample was reconstituted in the mobile phase, and a 5 μl sample was injected for LC-MS/MS analysis. The plasma samples for each compound from the in vivo studies were extracted by mixing 350 μl ethyl acetate with 15 μl of plasma sample and 35 μl of universal buffer containing internal standard at pH 8. The samples were vortexed for 1 min and centrifuged for 5 min, and the organic layer was then transferred and evaporated under a gentle stream of nitrogen at room temperature for 30 min. The dried samples were each reconstituted in the mobile phase, and a 5 μl sample was injected for LC-MS/MS analysis.
LC-MS/MS analysis. For all the artemisinins except the arylurea 10, gradient chromatography was performed on a Phenomenex (Torrance, CA, USA) Luna PFP(2) analytical column (100 Å, 5 μm, 2 by 50 mm) and an AB Sciex API 5500 mass spectrometer which was operated at unit resolution in the multiple reaction monitoring (MRM) mode. The HPLC method used was a gradient method with 5 mM ammonium acetate and 0.1% acetic acid in water as the aqueous phase and a mixture of acetonitrile and methanol (1:1 vol/vol) containing 5% of the aqueous phase as the organic phase ([89]). The arylurea 10 was analyzed using a Phenomenex Gemini NX-C18 (5 μm, 2.1 mm by 50 mm) column with an AB Sciex 3200 QTRAP mass spectrometer operated at unit resolution in the MRM mode. The HPLC method used was a gradient method with 5 mM ammonium acetate and 0.1% acetic acid in water as the aqueous phase and a mixture of acetonitrile and methanol (1:1 vol/vol). The transitions of the molecular ions were monitored, as listed in Table S8 in the supporting information. The calibration range was between 0.002 μg/ml and 6.250 μg/ml. Data acquisition and evaluation were performed using Analyst 1.6.2 software (Applied Biosystems, Foster City, CA, USA). The formation of the putative metabolite DHA from the amino-artemisinins and the metabolite M1 of artemisone were evaluated in these mice PK studies; the MRM transitions of DHA and M1 (Table S8) were thus included in the LC-MS/MS assays.

Series [2] concerns P. falciparum W2. The arrangement: method as in ref 4 (supplement; main text 62). The settings on record: Table S2, ± SEM; ref 4 (supplement; main text 62); read-out: Antimalarial activities IC50 W2; cited from earlier work.
Series [3] has as its system P. falciparum K1. Also on record: method as in ref 4 (supplement; main text 62). The conditions noted are these: Table S2, ± SEM; ref 4 (supplement; main text 62); read-out: Antimalarial activities IC50 K1; cited from earlier work.
The test system of series [4] is late stage (>90% stage IV and V) P. falciparum NF54 gametocytes. The settings on record: cited from earlier work.
In series [5] the test system is P. falciparum NF54. Also on record: method as in ref 4 (supplement; main text 62). The conditions noted are these: Table S2, ± SEM; ref 4 (supplement; main text 62); read-out: Antimalarial activities IC50 NF54; cited from earlier work.
For series [6] the following is noted: cited from earlier work.
Series [7] concerns HepG2. The settings on record: read-out: Cytotoxicity EC50 HepG2; ref 2 (supplement; main text 48); cited from earlier work.
The subject of series [8] is P. falciparum W2. Also on record: method as in ref 1 and 2 (supplement; main text 47, 48). The conditions noted are these: Table S1, ± SEM; ref 1 and 2 (supplement; main text 47, 48); cited from earlier work.
Series [9] has as its system P. falciparum NF54. Also on record: method as in ref 1 and 2 (supplement; main text 47, 48). The settings on record: Table S1, ± SEM; ref 1 and 2 (supplement; main text 47, 48); cited from earlier work.
In series [10] the test system is P. falciparum 7G8. The arrangement: method as in ref 5 (supplement; main text 63). The conditions noted are these: CQ resistant; ref 5 (supplement; main text 63); read-out: Antimalarial activities IC50 7G8; cited from earlier work.
Series [11] relates to P. falciparum TM93-C1088. Also on record: method as in ref 5 (supplement; main text 63). The settings on record: atovaquone and CQ resistant; ref 5 (supplement; main text 63); read-out: Antimalarial activities IC50 TM93-C1088; cited from earlier work.
Series [12] relates to P. falciparum TM91-C235. Also on record: method as in ref 5 (supplement; main text 63). The settings on record: CQ and mefloquine resistant; ref 5 (supplement; main text 63); read-out: Antimalarial activities IC50 TM91-C235; cited from earlier work.
Series [13] deals with P. falciparum TM-C2B. Also on record: method as in ref 5 (supplement; main text 63). The settings on record: atovaquone and CQ resistant; ref 5 (supplement; main text 63); read-out: Antimalarial activities IC50 TM-C2B; cited from earlier work.
[14] abbreviates: Table S4, n = 1, ref 4 (supplement; main text 62), read-out: Late stage IC50 (Luciferase 72 h).
The mark [15] stands for this setting: Table S3, ± SEM, ref 1 and 2 (supplement; main text 47, 48), read-out: Late Stage (LG, Luc 72 h) IC50.

As usually defined, the IC50 is the concentration that inhibits the measured activity by half. With `C[C@@H]1CC[C@H]2[C@@H](C)C(=O)N[C@@H]3O[C@@]4(C)CC[C@@H]1[C@]32OO4` [11-Aza-artemisinin 11, 11-aza-artemisinin], the “Hepatic extraction ratio EH Rat” value in series [1] came out at 0.1. Moreover, the CLint scaled in [1] is 0.54 L/h/kg. The half-life in [1] was greater than 150 min. The IC50 in [2] was 6.02 ± 1.81 nM; in series [3], 9.44 ± 2.93 nM; in series [4] (setting [14]) it was 166 nM; in series [5] it was 10.5 ± 1.36 nM.

Usually aqueous solubility stands for the concentration that dissolves in the medium under given conditions. As for `CO[C@H]1O[C@@H]2O[C@@]3(C)CC[C@H]4[C@H](C)CC[C@@H]([C@H]1C)[C@@]24OO3` [Artemether 3, artemether], the figures for the aqueous solubility in series [6] (25°C), in [6] and in series [6] (variously recorded) were 0.0121 mg/mL (≈ 40.6 µM), 0.3 mg/mL (≈ 1010 µM) and less than 1 mg/mL, respectively. In addition, the aqueous solubility rating result in [6] is “insoluble”. Besides, the “Hepatic extraction ratio EH Rat” value in series [1] amounted to 0.9. In addition, the CLint scaled in [1] is 59.3 L/h/kg. For the same molecule, the half-life in [1] was less than 10 min. For the same molecule, the IC50 in series [2] is 6.7 ± 0.6 nM; in [3], 2.64 ± 0.18 nM; in [4] (setting [14]), 224 nM; in series [5], 1.86 ± 0.17 nM.

The term EC50 denotes the concentration giving half of the maximal effect. Turning to `C[C@H]1[C@H](N2CCSCC2)O[C@@H]2O[C@@]3(C)CC[C@H]4[C@H](C)CC[C@@H]1[C@@]24OO3` [Artemiside 5, artemiside], the EC50 in [7] was greater than 25000 nM. The “aqueous solubility at pH 7.2” value in [6] was < 2 mg/liter and < 5.4 μM. For the same molecule, in series [1], the “Hepatic extraction ratio EH Rat” value worked out at 1.0, the CLint scaled was 83.4 L/h/kg and the half-life was less than 10 min. Also, the IC50 in series [8] was 1.75 ± 0.27 nM. Besides, in series [4] (setting [15]), the IC50 is 1.5 ± 0.5 nM. Besides, in series [9], the IC50 was 1.11 ± 0.17 nM.

For the molecule `C[C@H]1[C@H](N2CCS(=O)(=O)CC2)O[C@@H]2O[C@@]3(C)CC[C@H]4[C@H](C)CC[C@@H]1[C@@]24OO3` [Artemisone 6, artemisone], in series [7], the EC50 was greater than 50000 nM. In addition, the “aqueous solubility at pH 7.2” value in series [6] is 89 mg/liter and 221.6 μM. Besides, the “Hepatic extraction ratio EH Rat” value in series [1] is 0.9. Besides, the CLint scaled in series [1] is 20.6 L/h/kg. In addition, the half-life in series [1] is less than 10 min. For the same molecule, the half-inhibitory concentration (IC50) in series [8] is 1.6 ± 0.4 nM; in series [10], 0.8 ± 0.1 nM; in series [11], 0.7 ± 0.2 nM; in [4] (setting [15]), 42.4 ± 3.3 nM; in series [12] it was 1.1 ± 0.5 nM; in [13], 1.1 ± 0.4 nM. Also, the IC50 in series [9] was 1.2 ± 0.4 nM.

For the molecule `C[C@H]1[C@H](N2CCN(C(=O)Nc3ccc(F)cc3)CC2)O[C@@H]2O[C@@]3(C)CC[C@H]4[C@H](C)CC[C@@H]1[C@@]24OO3` [Arylurea 10], the EC50 in series [7] is 5160 nM. Moreover, the IC50 is 1.16 ± 0.17 nM in series [8], 17 ± 7 nM in [4] (setting [15]) and 1.3 ± 0.1 nM in [9].

Consider `C[C@H]1[C@@H](O)O[C@@H]2O[C@@]3(C)CC[C@H]4[C@H](C)CC[C@@H]1[C@@]24OO3` [DHA 2, dihydroartemisinin], for which the “Hepatic extraction ratio EH Rat” value in [1] came out at 0.4. Besides, the CLint scaled in series [1] was 2.08 L/h/kg. In series [1], the half-life was 90 min. Besides, the IC50 in series [8] was 1.74 ± 0.22 nM; in series [10], 1.3 ± 0.2 nM; in series [2], 0.37 ± 0.11 nM; in series [3], 0.8 ± 0.5 nM; in series [11] it was 1.4 ± 0.4 nM; in [4] (setting [15]) it was 33.7 ± 1.98 nM. In addition, the IC50 was 2.3 ± 0.7 nM in series [12], 2 ± 0.7 nM in series [13], 2.51 ± 0.19 nM in [9] and 0.57 ± 0.01 nM in series [5].

In the case of `C[C@H]1[C@H](N2C=CS(=O)(=O)CC2)O[C@@H]2O[C@@]3(C)CC[C@H]4[C@H](C)CC[C@@H]1[C@@]24OO3` [M1 12], in series [1], the “Hepatic extraction ratio EH Rat” value is 0.7. Besides, the CLint scaled in series [1] was 6.51 L/h/kg. Besides, in series [1], the half-life was determined as 28.8 min. Further, the IC50 in series [10] was 2.6 ± 0.8 nM; in [11], 2.5 ± 0.4 nM; in [12], 5 ± 0.6 nM; in series [13], 8.6 ± 8.2 nM.

For `C[C@H]1[C@H](NS(N)(=O)=O)O[C@@H]2O[C@@]3(C)CC[C@H]4[C@H](C)CC[C@@H]1[C@@]24OO3` [Sulfamide 7], the “aqueous solubility at pH 7.2” value in [6] was 294 mg/liter and 811 μM. Moreover, in [1], the “Hepatic extraction ratio EH Rat” value came to 0.4, the CLint scaled is 1.97 L/h/kg and the half-life was 94.9 min. Also, in series [8], the IC50 is 2.04 ± 0.11 nM. Further, in [4] (setting [15]), the half-inhibitory concentration (IC50) is 419 nM. The IC50 in [9] was 3 ± 1 nM.
